Measurements as given in EP4763837A1, “PHOTOCHROMIC COMPOUND, CURABLE COMPOSITION, OPTICAL ARTICLE, LENS, AND EYEGLASSES” (TOKUYAMA CORPORATION, priority 2023, dated 2025).
Where “and” joins values, the source holds several entries; their conditions need not be identical. Equal values may be shown once.

How the values were obtained:
[1] = Photochromic property of photochromic laminate made by coating method; type: physicochemical; conditions: for Residual ratio / Color developing density at 23°C: laminate by coating method; for Residual ratio: A96/A0 x 100 after 96 hours accelerated degradation, xenon weather meter X25; for Color developing density at 23°C: absorbance difference after 240 seconds irradiation at the maximum absorption wavelength of the same line
Source text: First, the photochromic compound obtained in Example 1, a photoinitiator, and a polymerizable compound were mixed to obtain a curable composition.
The polymerizable compound was a combination of the following radical polymerizable monomers:
Polyethylene glycol dimethacrylate (average molecular weight: 736): 42 parts by mass • Polyethylene glycol dimethacrylate (average molecular weight: 536): 12 parts by mass • Trimethylolpropane methacrylate: 38 parts by mass γ-Methacryloyloxypropyltrimethoxysilane: 2 parts by mass Glycidyl methacrylate: 1 part by mass.
Note that, in the curable composition, the photochromic compound was added in an amount of 0.25 mmol taking a total amount of the radical polymerizable monomers as 100 g.
Phenylbis(2,4,6-trimethylbenzoyl)phosphine oxide (photoinitiator: Omnirad 819): 0.3 parts by mass Ethylene bis(oxyethylene) bis[3-(5-tert-butyl-4-hydroxy-m-tolyl) propionate] (stabilizer, Irganox 245): 1 part by mass Bis(1,2,2,6,6-pentamethyl-4-piperidyl)sebacate: 3 parts by mass Leveling agent (L-7001) manufactured by DuPont Toray Specialty Materials K.K.: 0.1 parts by mass.
Using this curable composition, a photochromic laminate was obtained by a lamination method including polymerization as follows.
First, a thiourethane plastic lens with a center thickness of 2 mm and a refractive index of 1.60 was prepared as an optical substrate. Note that, the thiourethane plastic lens had been alkaline-etched in a 10% sodium hydroxide aqueous solution at 50°C for 5 minutes in advance, and then thoroughly washed with distilled water.
A spin coater (1H-DX2, manufactured by MIKASA CO., LTD) was used to coat a surface of the above-mentioned plastic lens with a moisture-curing primer (product name: TR-SC-P, manufactured by Tokuyama Corporation) at a rotation speed of 70 rpm for 15 seconds, followed by 1000 rpm for 10 seconds. Then, about 2 g of the photochromic curable composition obtained above was spin-coated at a rotation speed of 60 rpm for 40 seconds, followed by 600 rpm for 10 to 20 seconds so as to achieve a photochromic coating layer with a thickness of 40 µm.
The lens of which surface had been coated with the photochromic curable composition (photochromic coating layer) was irradiated with light for 90 seconds in a nitrogen gas atmosphere using a metal halide lamp with an output of 200 mW/cm^2 to cure the coating. The resultant was then further heated at 110°C for 1 hour to produce a photochromic laminate with a photochromic layer.
Photochromic laminates were produced using the photochromic compounds obtained in Examples 2 to 20 in the same manner as in Example 21.
Photochromic laminates were obtained using photochromic compounds represented by Formulae (A) to (D) below in the same manner as in Example 21. [drawing 89] [drawing 90] [drawing 91] [drawing 92] [drawing 93]
The resulting photochromic laminates were evaluated by the below-mentioned methods. • (1) Photochromic property • [1] Maximum absorption wavelength (λmax): This is the maximum absorption wavelength after color development determined by a spectrophotometer manufactured by Otsuka Electronics Co., Ltd. (instantaneous multichannel photo detector MCPD3000) and was used as an index of a color tone upon color development. • [2] Color developing density at 23°C (A23): This is a difference between an absorbance {ε(240)} after irradiation with light at 23°C for 240 seconds and an absorbance ε(0) when not irradiated with light at the maximum absorption wavelength and was used as an index of a color developing density. The higher this value is, the better a photochromic property is. • [3] Color fading half-life at 23°C [τ1/2 (sec).)]: This is a period of time taken by an absorbance at the maximum absorption wavelength of a sample to decrease to 1/2 of {ε(240)-ε(0)} when irradiation is stopped after irradiation with light at 23°C for 240 seconds, and was used as an index of a color fading rate. The shorter this period of time is, the faster the color fading rate is. • [4] […]

[2] = Solubility of photochromic compound in polymerizable compounds; type: physicochemical; set-up: key: 1: No haze is seen when checked under transmission of light, and the sample is completely dissolved.; 2: A very thin haze is seen to the extent that it can be seen under transmission of light.; 3: A thin haze that can be seen under transmission of light is seen.; 4: A haze can be seen even without transmission of light; conditions: 35 µmol/g in radical polymerizable compound composition of Example 21, 65 to 70°C; for Dissolution for 15 min / Dissolution for 30 min / Dissolution for 45 min: stirring and ultrasonic irradiation; for Dissolution for 1 hour: head reads 60 min in Tables 8 to 14
Procedure: The photochromic compounds according to Examples and Comparative examples shown in Table 5 were evaluated for solubility in polymerizable compounds.
Specifically, a sample was prepared by adding each of the photochromic compounds to the composition, which consisted of a radical polymerizable compound, among the curable compositions used in Example 21.
Note that, this test was performed using "YOKAI-KUN USS-1" manufactured by NIHONSEIKI KAISHA LTD. under the following conditions: • Dissolution temperature: 65 to 70°C • Stirring condition: Stirring dial of 5. Ultrasonic irradiation condition: Irradiation interval of 3 sec.
Dissolution was checked every 15 minutes up to 1 hour later, the sample was visually checked by transmitting light through the sample, and a degree of dissolution was evaluated according to the following four evaluation criteria.
• 1: No haze is seen when checked under transmission of light, and the sample is completely dissolved. • 2: A very thin haze is seen to the extent that it can be seen under transmission of light. • 3: A thin haze that can be seen under transmission of light is seen. • 4: A haze can be seen even without transmission of light.
A shorter time required for the evaluation result to be 1 means higher solubility.

Structure (SMILES) | Residual ratio [1] | Dissolution for 15 min [2] | Dissolution for 30 min [2] | Dissolution for 45 min [2] | Dissolution for 1 hour [2] | Color fading half-life at 23°C [1] | Color developing density at 23°C [1]
CCCCC1(C)c2cc(N(C)c3ccccc3)ccc2-c2c1c1c(c3cc(OC)c(OC)cc23)OC(c2ccc(OC)cc2)(c2ccc(OCCC)cc2)C=C1 (stereo not drawn) [Formula (73-2)] | 62% | 3 | 3 | 2 | 1 |  | 
CCC1(C)c2cc(OC)ccc2-c2c1c1c(c3cc(OC)c(Sc4c(C)cccc4C)cc23)OC(c2ccc(OC)cc2)(c2ccc(N3CCOCC3)cc2)C=C1 (stereo not drawn) [Formula (74-2)] | 64% | 4 | 3 | 2 | 1 | 1.5 min | 
CCCCC1(CC)c2cc(OC)ccc2-c2c1c1c(c3cc(OC)c(Sc4c(C)cccc4C)cc23)OC(c2ccc(OC)cc2)(c2ccc(N3CCOCC3)cc2)C=C1 (stereo not drawn) [Formula (77-1)] | 67% | 3 | 3 | 1 | 1 |  | 
CCCC1(CC)c2ccccc2-c2c1c1c(c3cc(OC)c(-c4c(OC)cc(OC)cc4OC)cc23)OC(c2ccc(OC)cc2)(c2ccc(N(c3ccccc3)c3ccccc3)cc2)C=C1 (stereo not drawn) [Formula (78-2)] | 64% | 3 | 2 | 1 | 1 |  | 
CCCC1(CC)c2cc(C)ccc2-c2c1c1c(c3cc(OC)c(-c4ccc(N5CCOCC5)cc4)cc23)OC(c2ccc(OC)cc2)(c2ccc(N3CCOCC3)cc2)C=C1 (stereo not drawn) [Formula (79-2)] |  | 3 | 2 | 1 | 1 | 1.3 min | 
CCCCC1(CC)c2ccccc2-c2c1c1c(c3cc(OC)c(N(C)c4ccccc4)cc23)OC(c2ccc(OC)cc2)(c2ccc(OC)cc2)C=C1 (stereo not drawn) [Formula (80-2)] | 79% | 3 | 2 | 1 | 1 | 1.17 min | 1.09 -
CCCOc1ccc(C2(c3ccc(OC)cc3)C=Cc3c4c(c5cc(OC)c(OC)cc5c3O2)-c2ccc(N(C)c3ccccc3)cc2C4(CC)CCC)cc1 (stereo not drawn) [Formula (87-1)] | 64% | 3 | 2 | 1 | 1 | 2.65 min | 
CCCCCCC1(C)c2cc(OC(F)(F)F)ccc2-c2c1c1c(c3cc(OC)ccc23)OC(c2ccc(OC)cc2)(c2ccc(OC)cc2)C=C1 (stereo not drawn) [Formula (90-1)] | 64% | 3 | 2 | 1 | 1 |  | 
CCCC1(CC)c2cc(OC)ccc2-c2c1c1c(c3cc(OC)ccc23)OC(c2ccc(OC)cc2)(c2ccc(N3CCOCC3)cc2)C=C1 (stereo not drawn) [Formula (91-1)] | 57% | 4 | 3 | 1 | 1 | 1.25 min | 
CCC1(OCCOCCO[Si](C)(C)CC[Si](O[Si](C)(C)C)(O[Si](C)(C)C)O[Si](C)(C)C)c2ccccc2-c2c1c1c(c3cc(OC)c(N4CCOCC4)cc23)OC(c2ccc(OC)cc2)(c2ccc(OC)cc2)C=C1 (stereo not drawn) [Formula (C), reference compound] | 34% and 36% | 2 | 1 | 1 | 1 |  | 1.27 - and 0.70 -
COc1ccc(C2(c3ccc(OC)cc3)C=Cc3c4c(c5cc(N6CCOCC6)c(OC)cc5c3O2)-c2ccccc2C42CCCCCCC2)cc1 [Formula (D), reference compound] | 51% and 53% | 4 | 3 | 2 | 1 | 3.13 min | 1.61 - and 0.89 -
